Test results: patent publication US7863267B2, “Use of selective chloride channel modulators to treat methamphetamine abuse” (priority 2003, dated 2011)
Read-outs that look alike come from different tables or passages of the source.

Key:
alcoholics [1] = experiment: CIWA-A withdrawal symptomatology before and after flumazenil in alcoholics; assay type: in vivo, human
Description: (§1) 64 alcoholics (51 males and 13 females) voluntarily entered a treatment program to discontinue the use of alcohol. The patients were provided the appropriate information and the corresponding informed consent form was obtained from them. The patients were warned not to drink alcohol the morning on which the treatment was to be carried out to enable better evaluation of the withdrawal symptoms. Table 14 summarizes the characteristics of the patients treated associated with alcohol use.
(§2) Before starting the treatment, the patients underwent a complete medical and psychological examination. The monitoring of the patients throughout the morning included a complete blood count, a biochemical profile [creatinine, glucose, blood urea nitrogen (BUN), cholesterol (HDL and LDL), triglycerides, alkaline phosphatase, LDH (lactic dehydrogenase) and total proteins], hepatic function tests [GOT, GPT, GGT, bilirubin), electrocardiogram and, if need be, pregnancy test and x-ray examination. The exclusion criteria applied included acute or uncompensated illnesses, as well as the taking of any drug contraindicated with flumazenil. No patient was excluded after the pre-admission interview and the tests performed. Admission of one patient was postponed until their cardiac pathology was checked.
(§3) Before and after the administration of flumazenil, the withdrawal symptomatology was measured using the CIWA-A evaluation (Adinoff et al., Medical Toxicology 3:172-196 (1988)), as well as heart rate and blood pressure.
(§4) Flumazenil was administered at a dose of 0.2 mg every 3 minutes (up to a total of 2 mg/day). This quantity per dose was established to minimize the adverse side effects associated with withdrawal or interactions with other pharmaceuticals or psychopathologies.
(§5) Patients who presented marked anxiety were administered an additional dose of 192 mg of clomethiazole 30 minutes before administration of flumazenil.

alcoholics [2] = experiment: Heart rate and blood pressure before and after flumazenil in alcoholics; assay type: in vivo, human; parameters: Heart rate: patients with a significant reduction / Diastolic blood pressure: patients with a significant reduction: concentration or dose not given beside the values
Description: as §1, §2, §3, §4, §5

alcoholics [3] = experiment: Adverse events during flumazenil administration in alcoholics; assay type: in vivo, human
Description: as §1, §4, §5

alcoholics [4] = experiment: Follow-up after flumazenil treatment programme (therapy, dropouts); assay type: in vivo, human
Experimental: Before discharge from the hospital, the following medications were prescribed: • Vitamin B complex: 1 month with one dose during breakfast and one dose during lunch. • Piracetam, or a medicament that is pharmacologically equivalent, 3 g for 1 week with one dose during breakfast and 800 mg for 1 month with one dose during breakfast and one dose during lunch; • Fluoxetine 20 mg for 2 months with one dose during breakfast; • Clomethiazole 192 mg for 1 week with one dose during breakfast and one dose during dinner and a subsequent elimination of dose during the second week; • Disulfuram 250 mg with one dose during breakfast.
As part of the treatment program, the patients were instructed to attend the outpatient treatment center for 9 months with decreasing frequency [once a week for the first three months, once every two weeks during the second three months, and once a month during the third three months].
Likewise, a semi-structured follow-up of cognitive behavior therapy was implemented. Individual and family psychotherapy was focused on 4 major interventions (cognitive restructuring, work therapy, prevention of relapse, and stress reduction) aimed at rehabilitating the social, family, work, personal and leisure life of the patient.
Table 16 statistically summarizes the results obtained before and after the treatment (at the end of 18 hours).

alcoholics [5] = experiment: Clinical observations during hospitalization (appetite, sleep, anxiety, desire to drink); assay type: in vivo, human
Description: as §1, §4

[6] = system: alcoholics in the acute withdrawal phase; details: 2 mg IV for 1 minute, 8 alcoholics, cited from earlier work
[7] = system: ethanol withdrawal syndrome; details: cited from earlier work
[8] = excreted unchanged, not appreciably metabolized; cited from earlier work
[9] = cited from earlier work
[10] = after first administration, 55 patients
[11] = after second administration, 58 patients
[12] = after first administration, 53 patients
[13] = after second administration, 55 patients
[14] = after second administration, 56 patients

## CCOC(=O)c1ncn2c1CN(C)C(=O)c1cc(F)ccc1-2 [flumazenil, ethyl 8-fluoro-5,6-dihydro-5-methyl-6-oxo-4H-imidazol[1,5-a][1,4]benzodiazepine-3-carboxylate]
Alcoholics [1]; after first administration of flumazenil (0.2 mg every 3 min up to 2 mg/day), 55 patients
  CIWA-A scoring: patients with a significant reduction: 47.3%
Alcoholics [1]; [10]
  CIWA-A scoring: patients with a significant increase: 12.7%
  CIWA-A scoring: patients with no change: 40.0%
Alcoholics [1]; [11]
  CIWA-A scoring: patients with a significant increase: 8.6%
  CIWA-A scoring: patients with a significant reduction: 36.2%
  CIWA-A scoring: patients with no change: 55.2%
Alcoholics [1]; after treatment (at the end of 18 hours), n=54, before treatment mean 4.13
  CIWA-A mean after treatment: .76
Alcoholics [2]; [12]
  Diastolic blood pressure: patients with a significant increase: 18.9%
  Diastolic blood pressure: patients with a significant reduction: 34%
  Diastolic blood pressure: patients with no change: 47.2%
  Systolic blood pressure: patients with a significant increase: 15.1%
  Systolic blood pressure: patients with a significant reduction: 47.2%
  Systolic blood pressure: patients with no change: 37.7%
Alcoholics [2]; [10]
  Heart rate: patients with a significant increase: 9.1%
  Heart rate: patients with a significant reduction: 50.9%
  Heart rate: patients with no change: 40.0%
Alcoholics [2]; [13]
  Heart rate: patients with a significant reduction: 41.8%
  Heart rate: patients with no change: 58.2%
Alcoholics [2]; [14]
  Diastolic blood pressure: patients with a significant increase: 19.6%
  Diastolic blood pressure: patients with a significant reduction: 28.6%
  Diastolic blood pressure: patients with no change: 51.8%
  Systolic blood pressure: patients with a significant increase: 16.1%
  Systolic blood pressure: patients with a significant reduction: 28.6
  Systolic blood pressure: patients with no change: 55.4%
Alcoholics [2]; after treatment (at the end of 18 hours), n=51, before treatment mean 86.27
  Diastolic blood pressure mean after treatment: 82.75
Alcoholics [2]; after treatment (at the end of 18 hours), n=51, before treatment mean 135.2
  Systolic blood pressure mean after treatment: 126.67
Alcoholics [2]; after treatment (at the end of 18 hours), n=53, before treatment mean 81.42, in beats/min (unit assumed)
  Heart rate mean after treatment: 75.02
Alcoholics [3]; disappeared after a few minutes or after metamizole magnesium
  Patients who suffered headache during or immediately following administration: Approximately 10%
Alcoholics [3]; of the 64 patients treated, increase in confusion, distal tremors or anxiety
  First administration of flumazenil interrupted and postponed to the following day: 3 cases
Alcoholics [4]; Month 1, N 43
  Follow-up: Dropouts: 4.7%
  Follow-up: Therapy and Disulfiram: 95.3%
  Follow-up: Therapy without Disulfiram: 4.5%
Alcoholics [4]; Month 3, N 22
  Follow-up: Dropouts: 9.1%
  Follow-up: Therapy and Disulfiram: 86.4%
Alcoholics [4]; Month 6, N 12
  Follow-up: Dropouts: 25%
  Follow-up: Therapy and Disulfiram: 75%
Alcoholics [4]; Month 9, N 8
  Follow-up: Dropouts: 12.5%
  Follow-up: Therapy and Disulfiram: 75%
  Follow-up: Therapy without Disulfiram: 12.5%
Alcoholics [5]
  Psychophysiological functions such as appetite and sleep: regained very rapidly
  Spontaneous verbal report from the majority of the patients: absence of anxiety and of the desire to drink alcohol
[6]; in other cases
  Withdrawal symptoms after flumazenil: the withdrawal symptoms disappeared but returned a few hours later
[6]; in some cases, especially sweats and anxiety
  Withdrawal symptoms after flumazenil: immediate worsening of the withdrawal symptoms
[7]; rat models of the ethanol withdrawal syndrome
  Anxiogenic withdrawal effects (social interaction test, elevated plus maze): reverse anxiogenic withdrawal effects
[7]; rats
  Agitation and stereotyped behavior induced by withdrawal from long-term ethanol exposure: prevent the agitation and stereotyped behavior

## NCC1(CC(=O)O)CCCCC1 [Gabapentin]
[8]
  Elimination half-life: 5 to 7 h

## OCCOCCN1CCN(C(c2ccccc2)c2ccc(Cl)cc2)CC1 (centres unmarked) [Hydroxyzine]
[9]
  Time to effects after oral administration: 15 to 30 min
